Measured values reported in patent US20250049036A1 (priority 2021, published 2025).

What was measured:
Pyricularia oryzae = test: microbe, parasite or virus in culture; format: cell-based; conditions: 168 h, read-out: control compared to the untreated check
Alternaria solani [1] = test: Alternaria solani (early blight of tomato/potato) mycelial radial growth on potato dextrose agar; format: cell-based; conditions: 168 h, 25° C., seven days, read-out: control compared to the untreated check
Procedure: (§1) The compounds were dissolved in 0.3% dimethyl sulfoxide and then added to potato dextrose agar medium just prior to dispensing it into petri dishes. 5 mL medium, with the compound in the desired concentration, was dispensed into 60 mm sterile petri-plates. After solidification, each plate was seeded with a 5 mm size mycelial disc taken from the periphery of an actively growing virulent culture plate. The plates were incubated in growth chambers at 25° C. temperature and 60% relative humidity for seven days and the radial growth was measured and compared to the one of the untreated control.

Parastagonospora nodorum = Parastagonospora nodorum (PARANO) spore growth inhibition in liquid medium, 96-well microtiter plate, OD 600; format: cell-based; conditions: spore suspension in PDB liquid medium, 18° C., 5-6 days, OD at 600, read-out: control compared to the untreated check
Method in brief: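 Read-out is percent growth inhibition from OD at 600 after 5-6 days at 18° C. Compounds, dissolved in DMSO, were diluted in potato dextrose broth and combined in equal volume with a 10^5 spores/ml suspension of PARANO.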

Venturia Inequalis = test: Venturia inequalis (VENTIN) spore growth inhibition in liquid medium, 96-well microtiter plate, OD 600; format: cell-based; conditions: spore suspension in PDB liquid medium, 18° C., 15-18 days, OD at 600, read-out: control compared to the untreated check
Procedure: Potato dextrose (PDB) liquid medium containing a VENTIN (10^5 spores/ml) spore suspension was prepared. For the inhibition assay, each test compound was solved in dimethyl sulfoxide. 100 μl of the test compound in media-solution was added to a 96-well microtiter plate, consequently, the same volume (100 μl) of spore suspension was added to the well making the final test concentrations and the treated plate was incubated at 18° C. for 15-18 days. The growth inhibition was evaluated by measuring the OD at 600. Percent inhibition was calculated with the below formula: […]

Phytophthora infestans [2] = test: whole plant or invertebrate; format: in vivo, Phytophthora infestans on tomato; conditions: in Solanum lycopersicum, read-out: control (efficacy, disease severity) compared to the untreated check
Phakopsora pachyrhizi = Phakopsora pachyrhizi test on soybean, preventive, greenhouse; format: in vivo; conditions: preventive spray on soybean, inoculated one day after treatment, read-out: control (efficacy, disease severity) compared to the untreated check
Method in brief: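 Preventive protocol: plants inoculated with a 2×10^5 P. pachyrhizi conidial suspension one day after spray application at the stated rate, then incubated at 22-24 °C and 80-90% RH. Compound was applied from 2% DMSO/acetone diluted in emulsified water.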

Botrytis cinerea [3] = test: Botrytis cinerea (gray mold) mycelial radial growth on potato dextrose agar; format: cell-based; conditions: 168 h, 22° C., seven days, read-out: control compared to the untreated check
Procedure: as §1, with “22°” for “25°”, “90%” for “60%”

Colletotrichum capsici = Colletotrichum capsici (anthracnose) mycelial radial growth on potato dextrose agar; format: cell-based; conditions: Colletotrichum truncatum, 168 h, 25° C., seven days, read-out: control compared to the untreated check
Method in brief: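 Compounds in 0.3% DMSO were mixed into potato dextrose agar, and each plate was seeded with a 5 mm mycelial disc from an actively growing culture. Plates were incubated at 25° C and 60% relative humidity for seven days. Radial growth was compared with untreated control.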

Phytophthora infestans [4] = test: microbe, parasite or virus in culture; format: cell-based; conditions: 168 h, read-out: control compared to the untreated check
Botrytis cinerea [5] = test: Botrytis cinerea liq. (BOTRCI) spore growth inhibition in liquid medium, 96-well microtiter plate, OD 405 nm; format: cell-based; conditions: spore suspension in YBA liquid medium, 22° C., 5-6 days, OD at 405 nm, read-out: control compared to the untreated check
Method in brief: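 Spore suspension of B. cinerea (10^4 spores/ml) in YBA liquid medium mixed 1:1 with compound diluted from DMSO. Incubated at 22° C. for 5-6 days. Growth read as OD 405 nm; percent inhibition derived from treatment, untreated-control and blank readings.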

Botrytis cinerea [6] = test: Botrytis cinerea test on tomato, preventive, greenhouse; format: in vivo; conditions: preventive spray on bean/chili plants (heading: tomato), inoculated one day after treatment, read-out: control (efficacy, disease severity) compared to the untreated check
Alternaria solani [7] = test: Alternaria solani test in tomato, preventive, greenhouse; format: in vivo; conditions: preventive spray on tomato, inoculated one day after treatment, read-out: control (efficacy, disease severity) compared to the untreated check
Procedure: The respective compound was dissolved in 2% dimethyl sulfoxide/acetone and then mixed with water containing an emulsifier to the calibrated spray volume of 30 mL. Each spray solution was poured into a spray bottle for further application.
To test the preventive activity of a compound, healthy young tomato plants, raised in the greenhouse, were sprayed with the active compound preparation at the stated application rate inside the spray cabinets using hollow cone nozzles. One day after treatment, the plants were inoculated with a spore suspension containing 0.24×10^6 Alternaria solani inoculum. The inoculated plants were then kept in a greenhouse chamber at 22-24° C. temperature and 90-95% relative humidity for disease expression.
A visual assessment of the compound's performance was carried out by rating the disease severity (0 100% scale) on treated plants 3, 7, 10 and 15 days after application. Efficacy (% control) of the compound was calculated by comparing the disease rating in the treatment with the one of the untreated control. The treated plants were also assessed for plant damage by recording symptoms like necrosis, chlorosis and stunting.

Cn1ccc2cc(C(=O)NC(C)(C)Cc3ccc(Cl)cc3F)cnc21 [Compound 47, N-(1-(4-chloro-2-fluorophenyl)-2-methylpropan-2-yl)-1-methyl-1H-pyrrolo[2,3-b]pyridine-5-carboxamide]
≥ 70%: inhibition of growth at 300 ppm (Pyricularia oryzae) | inhibition of growth at 300 ppm (Alternaria solani [1]) | inhibition of growth at 300 ppm (Parastagonospora nodorum) | inhibition of growth at 300 ppm (Venturia Inequalis) | pest or weed control at 500 ppm (Phytophthora infestans [2]) | pest or weed control at 500 ppm (Phakopsora pachyrhizi)

C=C(C)CC(C)(Cc1ccccc1F)NC(=O)c1cnc2cc[nH]c2c1 (stereo not drawn) [Compound 144, N-(1-(2-fluorophenyl)-2,4-dimethylpent-4-en-2-yl)-1H-pyrrolo[3,2-b] pyridine-6-carboxamide]
≥ 70%: inhibition of growth at 300 ppm (Botrytis cinerea [3]) | inhibition of growth at 300 ppm (Alternaria solani [1]) | inhibition of growth at 300 ppm (Colletotrichum capsici) | inhibition of growth at 300 ppm (Phytophthora infestans [4]) | inhibition of growth at 300 ppm (Parastagonospora nodorum) | inhibition of growth at 300 ppm (Venturia Inequalis) | inhibition of growth at 300 ppm (Botrytis cinerea [5]) | pest or weed control at 500 ppm (Botrytis cinerea [6]) | pest or weed control at 500 ppm (Phytophthora infestans [2]) | pest or weed control at 500 ppm (Phakopsora pachyrhizi)

Cn1ccc2cc(C(=O)NC3(Cc4ccccc4)CCCC3)cnc21 [Compound 10, N-(1-benzylcyclopentyl)-1-methyl-1H-pyrrolo[2,3-b]pyridine-5-carboxamide]
≥ 70%: inhibition of growth at 300 ppm (Alternaria solani [1]) | inhibition of growth at 300 ppm (Colletotrichum capsici) | inhibition of growth at 300 ppm (Phytophthora infestans [4]) | inhibition of growth at 300 ppm (Parastagonospora nodorum) | pest or weed control at 500 ppm (Phytophthora infestans [2]) | pest or weed control at 500 ppm (Phakopsora pachyrhizi)

Cn1ccc2cc(C(=O)NC(C)(C)Cc3ccccc3)cnc21 [Compound 1, 1-methyl-N-(2-methyl-1-phenylpropan-2-yl)-1H-pyrrolo[2,3-b]pyridine-5-carboxamide]
≥ 70%: inhibition of growth at 300 ppm (Pyricularia oryzae) | inhibition of growth at 300 ppm (Alternaria solani [1]) | inhibition of growth at 300 ppm (Colletotrichum capsici) | pest or weed control at 500 ppm (Botrytis cinerea [6]) | pest or weed control at 500 ppm (Phakopsora pachyrhizi)

Cn1ccc2cc(C(=O)NC3(Cc4ccccc4)CC3)cnc21 [Compound 39, N-(1-benzylcyclopropyl)-1-methyl-1H-pyrrolo[2,3-b]pyridine-5-carboxamide]
≥ 70%: inhibition of growth at 300 ppm (Pyricularia oryzae) | inhibition of growth at 300 ppm (Colletotrichum capsici) | inhibition of growth at 300 ppm (Phytophthora infestans [4]) | inhibition of growth at 300 ppm (Venturia Inequalis) | pest or weed control at 500 ppm (Phytophthora infestans [2]) | pest or weed control at 500 ppm (Phakopsora pachyrhizi)

CC(CCc1ccccc1)NC(=O)c1cnc2c(ccn2C)c1 (stereo not drawn) [Compound 75, 1-methyl-N-(4-phenylbutan-2-yl)-1H-pyrrolo[2,3-b]pyridine-5-carboxamide]
≥ 70%: inhibition of growth at 300 ppm (Botrytis cinerea [3]) | inhibition of growth at 300 ppm (Colletotrichum capsici) | inhibition of growth at 300 ppm (Parastagonospora nodorum) | inhibition of growth at 300 ppm (Venturia Inequalis) | inhibition of growth at 300 ppm (Botrytis cinerea [5]) | pest or weed control at 500 ppm (Botrytis cinerea [6]) | pest or weed control at 500 ppm (Phytophthora infestans [2]) | pest or weed control at 500 ppm (Phakopsora pachyrhizi)

Cn1ccc2cc(C(=O)NC(C)(C)Cc3ccccc3F)cnc21 [Compound 13, N-(1-(2-fluorophenyl)-2-methylpropan-2-yl)-1-methyl-1H-pyrrolo[2,3-b]pyridine-5-carboxamide]
≥ 70%: inhibition of growth at 300 ppm (Pyricularia oryzae) | inhibition of growth at 300 ppm (Alternaria solani [1]) | inhibition of growth at 300 ppm (Colletotrichum capsici) | inhibition of growth at 300 ppm (Phytophthora infestans [4]) | inhibition of growth at 300 ppm (Parastagonospora nodorum) | inhibition of growth at 300 ppm (Botrytis cinerea [5])

Cn1ccc2cc(C(=O)NC(C)(C)Cc3ccccc3Br)cnc21 [Compound 26]
≥ 70%: inhibition of growth at 300 ppm (Parastagonospora nodorum) | pest or weed control at 500 ppm (Alternaria solani [7]) | pest or weed control at 500 ppm (Phakopsora pachyrhizi)

Cn1ccc2cc(C(=O)NC3(Cc4ccccc4)CCCCC3)cnc21 [Compound 11, N-(1-benzylcyclohexyl)-1-methyl-1H-pyrrolo[2,3-b]pyridine-5-carboxamide]
≥ 70%: inhibition of growth at 300 ppm (Pyricularia oryzae) | inhibition of growth at 300 ppm (Alternaria solani [1]) | inhibition of growth at 300 ppm (Colletotrichum capsici) | inhibition of growth at 300 ppm (Parastagonospora nodorum)

Cn1ccc2cc(C(=O)NC(C)(C)Cc3cccc(C(F)(F)F)c3)cnc21 [Compound 14, 1-methyl-N-(2-methyl-1-(3-(trifluoromethyl)phenyl)propan-2-yl)-1H-pyrrolo[2,3-b]pyridine-5-carboxamide]
≥ 70%: inhibition of growth at 300 ppm (Alternaria solani [1]) | inhibition of growth at 300 ppm (Botrytis cinerea [5])

Cn1ccc2cc(C(=O)NC3(Cc4cccc(Cl)c4)CCCCC3)cnc21 [Compound 12, N-(1-(3-chlorobenzyl)cyclohexyl)-1-methyl-1H-pyrrolo[2,3-b]pyridine-5-carboxamide]
≥ 70%: inhibition of growth at 300 ppm (Pyricularia oryzae) | inhibition of growth at 300 ppm (Alternaria solani [1]) | inhibition of growth at 300 ppm (Colletotrichum capsici)

Cn1ccc2cc(C(=O)NC(C)(C)Cc3cc(F)cc(F)c3)cnc21 [Compound 15, N-(1-(3,5-difluorophenyl)-2-methylpropan-2-yl)-1-methyl-1H-pyrrolo[2,3-b]pyridine-5-carboxamide]
≥ 70%: pest or weed control at 500 ppm (Alternaria solani [7])

CC(c1ccccc1Cl)C(C)(C)NC(=O)c1cnc2c(ccn2C)c1 (stereo not drawn) [Compound 7, N-(3-(2-chlorophenyl)-2-methylbutan-2-yl)-1-methyl-1H-pyrrolo[2,3-b]pyridine-5-carboxamide]
≥ 70%: inhibition of growth at 300 ppm (Pyricularia oryzae) | inhibition of growth at 300 ppm (Alternaria solani [1]) | inhibition of growth at 300 ppm (Parastagonospora nodorum)

Cn1cc(C2CC2)c2cc(C(=O)NC(C)(C)Cc3ccccc3Cl)cnc21 [Compound 85, N-(1-(2-chlorophenyl)-2-methylpropan-2-yl)-3-cyclopropyl-1-methyl-1H-pyrrolo[2,3-b]pyridine-5-carboxamide]
≥ 70%: inhibition of growth at 300 ppm (Pyricularia oryzae) | inhibition of growth at 300 ppm (Alternaria solani [1]) | inhibition of growth at 300 ppm (Parastagonospora nodorum) | pest or weed control at 500 ppm (Phytophthora infestans [2]) | pest or weed control at 500 ppm (Phakopsora pachyrhizi)

CC(C)(Cc1ccc(F)cc1)NC(=O)c1cnc2[nH]ccc2c1 [Compound 41, N-(1-(4-fluorophenyl)-2-methylpropan-2-yl)-1H-pyrrolo[2,3-b] pyridine-5-carboxamide]
≥ 70%: inhibition of growth at 300 ppm (Phytophthora infestans [4]) | inhibition of growth at 300 ppm (Venturia Inequalis) | pest or weed control at 500 ppm (Botrytis cinerea [6]) | pest or weed control at 500 ppm (Phytophthora infestans [2]) | pest or weed control at 500 ppm (Phakopsora pachyrhizi)

Cn1ccc2cc(C(=O)NC(C)(C)C(C)(C)c3ccccc3)cnc21 [Compound 5, N-(2,3-dimethyl-3-phenylbutan-2-yl)-1-methyl-1H-pyrrolo[2,3-b]pyridine-5-carboxamide]
≥ 70%: inhibition of growth at 300 ppm (Alternaria solani [1]) | inhibition of growth at 300 ppm (Parastagonospora nodorum) | pest or weed control at 500 ppm (Phakopsora pachyrhizi)

CC(C)CC(C)(Cc1ccccc1)NC(=O)c1cnc2[nH]ccc2c1 (stereo not drawn) [Compound 28, N-(2,4-dimethyl-1-phenylpentan-2-yl)-1H-pyrrolo[2,3-b] pyridine-5-carboxamide]
≥ 70%: inhibition of growth at 300 ppm (Alternaria solani [1]) | inhibition of growth at 300 ppm (Colletotrichum capsici) | inhibition of growth at 300 ppm (Phytophthora infestans [4]) | inhibition of growth at 300 ppm (Parastagonospora nodorum) | pest or weed control at 500 ppm (Phakopsora pachyrhizi)
